According to US20100297256A1, “METHODS AND COMPOSITIONS FOR INHIBITING INTEGRINS USING TELLURIUM-CONTAINING COMPOUNDS” (priority 2007, published 2010):

Assays:
West Nile Virus (WNV) [1] = experiment: Cell-free virus assay; type: cell-based; details: Vero cells, 5 and 10 μg/ml 1 hour before infection, 1 hour after adsorption
Method: Cells were plated 20 hours before virus infection in 6-well plates at a density of 2×10^5 cells/plate, and treated with AS101 (1-10 μg/ml) for 1 hour or for 5-10 minutes before WNV infection. The cells were infected at MOI=5 PFU/cell and incubated for 1 hour at 37° C., 5% CO2. Supernatants were collected immediately following the incubation, and the concentration of the virus which remained cell-free in the culture supernatant was measured by viral plaque assay, as described above.

West Nile Virus (WNV) [2] = experiment: WNV plaque assay; type: cell-based; details: Vero cells, added 1 hour before inoculation
Method: Vero cells were seeded at a density of 1×10^6 cells in 10 cm dishes 20 hours prior to infection. WNV (5×10^3 PFU/ml, MOI=0.005 PFU/cell) was added to the cultures, and the plates were incubated for 1 hour at 37° C. with 5% CO2. After incubation, the medium was removed and the cells were washed 6 times with PBS and overlaid with fresh EMEM medium containing 4% FCS (fetal calf serum) and 1% (w/v) agar. Cells were then incubated at 37° C. with 5% CO2 for 3 days until plaques appeared, and then fixed and stained with a solution of 0.5% crystal violet in a mixture of formalin (1% v/v) and ethanol (1.65% v/v). Plaques were counted over a light box after removal of the agar overlay.

αVβ3 integrin = target: T1, αVβ3 integrin (Homo sapiens, UniProt P05106+P06756); experiment: Integrin-WNV attachment assay; type: binding; details: purified integrin 75 ng/well
T1 construct: purchased Chemicon
T1 sequence (P06756 31-889 limits assumed): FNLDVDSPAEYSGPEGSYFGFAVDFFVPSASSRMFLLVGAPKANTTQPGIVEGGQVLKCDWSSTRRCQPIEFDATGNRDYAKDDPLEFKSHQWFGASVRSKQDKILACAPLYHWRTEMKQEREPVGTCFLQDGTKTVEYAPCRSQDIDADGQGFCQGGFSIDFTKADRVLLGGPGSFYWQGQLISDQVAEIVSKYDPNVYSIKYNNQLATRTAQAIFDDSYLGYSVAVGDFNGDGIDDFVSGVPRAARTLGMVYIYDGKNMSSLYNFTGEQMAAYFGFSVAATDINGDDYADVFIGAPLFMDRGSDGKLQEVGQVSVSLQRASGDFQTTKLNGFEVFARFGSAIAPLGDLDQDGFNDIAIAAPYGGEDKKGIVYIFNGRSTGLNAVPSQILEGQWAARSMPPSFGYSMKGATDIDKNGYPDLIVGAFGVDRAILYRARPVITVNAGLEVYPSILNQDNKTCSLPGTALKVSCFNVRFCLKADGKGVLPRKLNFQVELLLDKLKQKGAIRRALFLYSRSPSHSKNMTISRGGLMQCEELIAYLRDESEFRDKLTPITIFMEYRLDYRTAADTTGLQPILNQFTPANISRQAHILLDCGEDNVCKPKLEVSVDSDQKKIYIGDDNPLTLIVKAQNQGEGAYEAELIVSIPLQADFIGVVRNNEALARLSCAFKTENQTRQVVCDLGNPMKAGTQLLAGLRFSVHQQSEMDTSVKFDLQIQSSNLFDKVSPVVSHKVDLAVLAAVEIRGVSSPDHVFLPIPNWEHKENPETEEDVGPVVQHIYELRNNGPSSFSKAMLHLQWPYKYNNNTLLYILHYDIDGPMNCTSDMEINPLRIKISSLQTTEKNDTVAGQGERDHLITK
T1 sequence (P06756 891-1048 limits assumed): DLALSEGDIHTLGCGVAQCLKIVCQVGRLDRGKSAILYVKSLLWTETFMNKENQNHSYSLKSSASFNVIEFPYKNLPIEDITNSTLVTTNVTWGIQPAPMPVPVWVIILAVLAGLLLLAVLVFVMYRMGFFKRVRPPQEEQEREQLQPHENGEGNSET
T1 sequence (P05106 27-788): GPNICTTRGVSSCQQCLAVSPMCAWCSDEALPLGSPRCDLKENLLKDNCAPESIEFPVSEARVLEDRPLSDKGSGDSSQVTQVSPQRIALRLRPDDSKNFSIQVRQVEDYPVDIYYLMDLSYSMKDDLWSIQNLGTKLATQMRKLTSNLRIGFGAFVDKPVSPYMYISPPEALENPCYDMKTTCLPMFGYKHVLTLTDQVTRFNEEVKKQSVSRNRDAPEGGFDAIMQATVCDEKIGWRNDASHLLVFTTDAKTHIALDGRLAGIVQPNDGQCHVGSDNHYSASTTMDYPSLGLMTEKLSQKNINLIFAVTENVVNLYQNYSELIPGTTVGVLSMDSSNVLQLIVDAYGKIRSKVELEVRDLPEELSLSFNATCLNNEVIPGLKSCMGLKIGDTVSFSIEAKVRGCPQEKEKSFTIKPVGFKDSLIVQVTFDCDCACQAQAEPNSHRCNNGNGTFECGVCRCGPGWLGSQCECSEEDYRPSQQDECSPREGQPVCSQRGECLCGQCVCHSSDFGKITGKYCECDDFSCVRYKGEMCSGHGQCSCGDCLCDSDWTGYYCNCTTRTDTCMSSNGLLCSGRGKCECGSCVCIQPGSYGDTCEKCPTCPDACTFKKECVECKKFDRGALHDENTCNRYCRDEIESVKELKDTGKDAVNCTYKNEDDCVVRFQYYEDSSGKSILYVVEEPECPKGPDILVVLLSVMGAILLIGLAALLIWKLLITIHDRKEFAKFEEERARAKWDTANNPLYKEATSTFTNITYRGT
Method: A solid-phase binding assay was performed according to a method previously described by Sharma et al [Virology, 239:150, 1997]. WNV was diluted in 50 mM carbonate-bicarbonate buffer, pH 9.6, to a concentration of 10^6 PFU/ml, and 100 μl aliquots were added to the wells of 96-well Nunc-Maxisorp ELISA plates. The plates were incubated overnight at 4° C., washed three times with washing buffer (20 mM Tris-HCL [pH 7.5], 150 mM NaCl), and then blocked for 2 hours at room temperature with […] of blocking buffer containing 20 mM Tris-HCL, pH 7.5, 150 mM NaCl, 5% Bovine serum albumin (BSA). The wells were then washed again, and purified αVβ3 integrin (75 ng/well), diluted in binding buffer (20 mM Tris-HCL, pH 7.5, 150 mM NaCl, 5% BSA, 2 mM CaCl2, 1 mM MgCl2) containing various concentrations of AS101, was added to the wells. After 2 hours of incubation at 37° C., the wells were washed three times with washing buffer. Bound integrin was detected with mouse monoclonal anti-human αVβ3 integrin antibody (Millipore [Chemicon]) diluted 1:1000 in 100 μl binding buffer. Incubation continued for 1 hour at 37 C, and then the wells were washed again. […] Colour development was stopped by the addition of 1 N H2SO4, and plates were read in a spectrophotometer at 492 nm.

U937 cells = experiment: AML chemotherapy resistance assay (XTT cell viability), U937; type: cell-based, human
Method: Cell viability was determined using a cell proliferation kit (Roche), which colors viable cells using the tetrazolium salt XTT.
(§1) 2×10^4 per 200 μl cells were seeded in 96-microwell flat bottom plates. After 24 hours, the tested compound(s) (e.g., AS101, ARA-C, DTNB, anti-VLA-4 antibody) was added, and the cells were incubated overnight with the tested compound(s). The XTT solution was then added and the cells were incubated for 4 hours at 37° C. Cell viability was than evaluated by measuring absorbance at 450 nm using a Microplate Spectrophotometer (Spectra MAX Plus, Molecular Devices).
The role of VLA protein in fibronectin-induced resistance to chemotherapy was investigated by performing a chemotherapy resistance assay, as described hereinabove, with anti-VLA-4 and anti-VLA-5 antibodies. U937 cells were grown in fibronectin- and BSA-coated plates. Antibodies were added at a concentration of 1 μg/ml.

[3] = test system: leukemic cells from AML patients; experiment: Sensitization of leukemic cells from AML patients to chemotherapy; type: cell-based, human
Method: as §1
Bone marrow samples from patients diagnosed, with AML, but not yet treated, were obtained and grown in vitro. The leukemic cells obtained therefrom were tested for levels of VLA-4 and VLA-5 via fluorescence based cytometry, using FITC (fluorescein isothiocyanate)-conjugated anti-VLA-4 and anti-VLA-5 antibodies, using standard procedures. The cells were grown on both fibronectin and BSA, and the effect of AS101 on chemotherapy resistance was measured.

West Nile Virus (WNV) [4] = experiment: West Nile Virus (WNV) cytopathic effect assay; type: cell-based; details: Vero cells
Method: Attached cells were washed with PBS without Ca^+2/Mg^+2. 100 μl of 0.2% crystal violet in 20% methanol was thereafter added and the cells were incubated for 10 minutes at room temperature. At the end of incubation time, cells were washed twice with double-distilled water and 100 μl of 10% SDS was added. Dye bound to the cell is released by SDS and the absorption by the dye is measured by colorimetry at 570 nm. The amount of stained cells is then considered to be proportional to the measured absorption by the dye
Vero cells were seeded at the density of 2×10^4 cells/well in 96-well plates, 20 hours before infection. The cells were treated with PBS or with various concentrations of AS101 before (1 hour or 5-10 minutes), or after (1 hour or 24 hours) virus inoculation. WNV at MOI (multiplicity of infection) of 0.005 PFU (plaque forming units) per cell was added to the cells and allowed undergo absorption for 1 hour at 37° C. The medium was removed and the cells were washed twice with PBS and overlaid with fresh medium. Cells were then incubated at 37° C. with 5% CO2 for 3-5 days. The development of a cytopathic effect was monitored by light microscopy.

In the case of `Cl[TeH]1(Cl)(Cl)OCCO1` [AS101, ammonium trichloro(dioxyethylene-O,O′)tellurate], the “WNV infectious units in culture supernatant relative to untreated cells” value (West Nile Virus (WNV) [1]) is reported as “approximately twice”, the WNV-induced plaque formation (West Nile Virus (WNV) [2]) is reported as “dose-dependent protective effect against the plaque formation” and the “attachment of αVβ3 integrin to immobilized WNV” value (αVβ3 integrin) is reported as “directly inhibited the attachment of αVβ3 integrin to WNV in a dose dependent manner”. For the same compound, the “effect on viability of cells exposed to ARA-C” value (U937 cells; U937, BSA-coated plates) was “neither AS101 nor anti-VLA-4 antibodies had an effect”, the “additional sensitization to ARA-C in cells sensitized by anti-VLA-4 antibodies” value (U937 cells; U937, fibronectin-coated plates) was “no additional effect” and the “sensitization to ARA-C-induced cell death” value (U937 cells; U937, fibronectin-coated plates, 0.5 or 1 μg/ml AS101) was “sensitized U937 cells to ARA-C-induced cell death on fibronectin-coated plates”. For the same compound, the “effect on viability of cells exposed to ARA-C, alone or in combination” value (U937 cells; U937 on BSA) was “no effect either alone or in combination”, the “sensitization to ARA-C, combination of AS101 and DTNB vs either alone” value (U937 cells; U937 on fibronectin) was “did not sensitize U937 cells grown on fibronectin to a greater degree than did either AS101 or DTNB alone” and the “inhibition of resistance to ARA-C” value ([3]; 8 AML patients with high VLA-4 levels, on fibronectin, 0.5 or 1 μg/ml AS101) was “inhibited the resistance to ARA-C of high-VLA-4 cells on fibronectin in a dose-dependent manner”. For the same compound, the “inhibition of resistance to ARA-C” value ([3]; Patient B, high VLA-4, on fibronectin) was “inhibited the resistance to ARA-C of high-VLA-4 cells on fibronectin in a dose-dependent manner”, the “sensitization to ARA-C, combination of AS101 and DTNB vs either alone” value ([3]; high-VLA-4 cells on fibronectin) was “did not sensitize high-VLA-4 cells grown on fibronectin to a greater degree than did either AS101 or DTNB alone” and the “effect on viability of cells exposed to ARA-C, alone or in combination” value ([3]; low VLA-4 leukemic cells, fibronectin-coated plates) was “no effect either alone or in combination”. For the same compound, the WNV cytopathic effect (West Nile Virus (WNV) [4]; 2.5 μg/ml added 5-10 minutes before inoculation) was “no cytopathic effect is observed”, the “viability of WNV-infected cells (crystal violet)” value (West Nile Virus (WNV) [4]; 72 hours after infection) was “dose-dependent protective effect” and the WNV cytopathic effect (West Nile Virus (WNV) [4]; added 1 hour or 24 hours after inoculation, data not shown) was “did not exhibit such an inhibitory effect”.
